In US7932286B2, “Method for treating colonic viscerosensitivity and spasticity” (priority 2007, dated 2011):

Tested on: colonic viscerosensitivity and spasticity induced by colonoscopy
Assay: Video-endoscopic colonoscopy after oral pre-treatment, individual case studies
Type: in vivo, human
Description: The patient had received a complete colonoscopy three years before in a hospital based gastro-intestinal unit, and this experience left them very anxious concerning the need for a repeat examination. The occurrence of pain during the procedure as well as the discomfort lasting few hours following the colonoscopic examination, despite parenteral sedation/analgesia, was still vivid in their memories. They wanted to negotiate an alternate diagnostic procedure such as a air-contrast barium enema. […] They were instructed to completed this pharmacological preparation by taking two Fleet® Phospho-soda 45 ml vials with five or six glasses of liquid one in the evening before the examination, and one in the morning two hours before the examination to clean and prepare “clean-rep” the colon. They presented alone to the endoscopy clinic and they were appropriately positioned on their left side on the examination table, and the video-endoscopic colonoscopy was initiated by the endoscopist. The colonoscopy was easily completed to the caecum in 14 minutes. […] The whole colonic examination including the accurate examination of the colon upon retraction of the instrument lasted a total of 25 minutes and was negative for mucosal lesions and for endoluminal polypoid formations. The patient then dressed up and walked to the endoscopist's office to receive the good results of the examination. They were asked several questions on their experience of the new pharmacological preparation as compared to their previous hospital-based unit experience with parenteral sedation/analgesia. […] The endoscopist and the assistant nurse were very satisfied with the ease and shortness of the completed procedure.
As part of a complete investigation, a colonoscopy was planned. They were prescribed Trimebutine maleate 200 mg tablets to be taken orally three times a day for three days before the scheduled examination. They were instructed to complete the pharmacological preparation by taking two Fleet® Phospho-soda 45 ml vials with five or six glasses of liquid, one in the evening before the examination, and one in the morning two hours before the examination to clean and prepare “clean-prep” the colon. They presented to the endoscopy unit with doubts that they could sustain the planned examination without any other drug preparation, having seen in their career many patients having barely tolerated this procedure of full colonoscopy, even after having received before the examination meperidine and midazolam intravenously. They also remembered the “stress experienced by the endoscopist and the assistant nurse working at completing the examination rapidly and successfully reaching the caecum in these patients”. Nonetheless, they consented at trying to receive the examination without further pharmacological preparation, with the promise by the physician that the procedure would be interrupted at their request in the case that they could not tolerate the pain or discomfort. After appropriately positioning the patient on their left side, the instrument was delicately introduced in their rectum, and the progression of the instrument gently initiated. They asked to have their head elevated with a pillow so they could see the video monitor and watch the video-endoscopic recording of their examination. […] The physician and the nurse were surprised by the fact that such a patient presenting a clinical irritable bowel syndrome could experience so little discomfort during the examination since these patients characteristically are chronically suffering from a very low threshold of viscerosentivity with solid or gaseous distension of the colon. After the procedure, they commented that they would accept to repeat the examination any time, and would not hesitate to recommend this pharmacological preparation to patients needing complete colonoscopy, and would be ready to reassure them that there were no more reasons to fear to receive such examination.

[1] = Example 1, patient, 200 mg tablets orally three times a day for three days before examination
[2] = Example 2, patient with clinical irritable bowel syndrome, 200 mg tablets orally three times a day for three days

In the case of Trimebutine maleate, the “recovery after the procedure” value (Example 1, patient) was “capable to drive home by themself without any assistance or recovery time”, the “colonic spastic contractions during colonoscopy” value [1] was “No colonic spastic contractions occurred” and the “duration of whole colonic examination including retraction of the instrument” value [1] was 25 min. For the same substance, the “pain or discomfort generated by air-distension of the colon” value [1] was “did not generate pain or discomfort”, the “time in which colonoscopy was completed to the caecum” value (Example 1, patient, 200 mg tablets orally three times a day for three days before examination, no sedation) was 14 min and the “patient-reported pain and discomfort during the procedure” value (Example 1, patient, questioned after the examination) was “did not experience any pain and very mild discomfort”. For the same substance, the “discomfort experienced by the patient during the examination” value [2] was “only mild but perfectly tolerable discomfort”, the “progression of the instrument in the patient” value [2] was “easy, painless” and the “spastic contractions during colonoscopy” value [2] was “No spastic contractions delayed the progression of the instrument”. For the same substance, the “time in which the caecum was reached” value (Example 2, patient with clinical irritable bowel syndrome, 200 mg tablets orally three times a day for three days before examination, no sedation) was 12 min.
